Data: the NIST ThermoML archive (doi:10.1016/j.jct.2018.02.018)

Legend:
[1] = refractive index (Na D-line) (dimensionless); conditions: 100 kPa, Liquid, Standard Abbe refractometry
[2] = 100 kPa, Liquid; for speed of sound: Frequency=3 MHz, Single path-length method; for mass density: Vibrating tube method
[3] = xn = mol fraction of the nth substance listed; conditions: 100 kPa, Liquid, x1 = 1; for speed of sound: Frequency=3 MHz, Single path-length method; for mass density: Vibrating tube method
[4] = refractive index (Na D-line) (dimensionless); xn = mol fraction of the nth substance listed; conditions: 100 kPa, Liquid, Standard Abbe refractometry, x1 = 1

CN(C)CCCO [3-dimethylamino-1-propanol]
Conditions	mass density, [2] [kg/m3]	refractive index, [1]	speed of sound, [2] [m/s]
293.15 K	885	1.437	1395.8
298.15 K	881	1.435	1377.3
303.15 K	877	1.433	1358.8
313.15 K	869	1.429	1322.1
323.15 K	860	1.425	1285.7

C[S+](C)[O-] [dimethyl sulfoxide] + NCc1ccccc1
Conditions	mass density, [3] [kg/m3]	refractive index, [4]	speed of sound, [3] [m/s]
293.15 K	1100	1.479	1503.9
303.15 K	1090	1.475	1469.9
313.15 K	1080	1.47	1436.3
323.15 K	1070	1.466	1403

NCCO [2-aminoethan-1-ol]
Conditions	mass density, [2] [kg/m3]	refractive index, [1]	speed of sound, [2] [m/s]
293.15 K	1016	1.455	1734.2
298.15 K	1012	1.453	1718.3
303.15 K	1008	1.451	1702.2
313.15 K	1000	1.447	1669.4
323.15 K	992	1.443	1637.3

C[S+](C)[O-] [dimethyl sulfoxide] + CN(C)CCCO
Conditions	mass density, [3] [kg/m3]	refractive index, [4]	speed of sound, [3] [m/s]
293.15 K	1100	1.479	1503.9
303.15 K	1090	1.475	1469.9
313.15 K	1080	1.47	1436.3
323.15 K	1070	1.466	1403

C[S+](C)[O-] [dimethyl sulfoxide]
Conditions	mass density, [2] [kg/m3]	refractive index, [1]	speed of sound, [2] [m/s]
293.15 K	1100	1.479	1503.9
298.15 K	1095	1.477	1486.8
303.15 K	1090	1.475	1469.9
313.15 K	1080	1.47	1436.3
323.15 K	1070	1.466	1403

C[S+](C)[O-] [dimethyl sulfoxide] + CN(C)CCOCCO
Conditions	mass density, [3] [kg/m3]	refractive index, [4]	speed of sound, [3] [m/s]
293.15 K	1100	1.479	1503.9
303.15 K	1090	1.475	1469.9
313.15 K	1080	1.47	1436.3
323.15 K	1070	1.466	1403

CN(C)CCOCCO [2-(2-dimethylaminoethoxy)ethanol]
Conditions	mass density, [2] [kg/m3]	refractive index, [1]	speed of sound, [2] [m/s]
293.15 K	954	1.442	1403.6
298.15 K	950	1.44	1386.7
303.15 K	946	1.438	1369.9
313.15 K	938	1.435	1336.8
323.15 K	930	1.431	1303.9

NCc1ccccc1 [benzylamine]
Conditions	mass density, [2] [kg/m3]	refractive index, [1]	speed of sound, [2] [m/s]
293.15 K	983	1.544	1579.7
298.15 K	978	1.542	1560.1
303.15 K	974	1.539	1540.2
313.15 K	965	1.534	1500
323.15 K	957	1.529	1461.1

C[S+](C)[O-] [dimethyl sulfoxide] + NCCO
Conditions	mass density, [3] [kg/m3]	refractive index, [4]	speed of sound, [3] [m/s]
293.15 K	1100	1.479	1503.9
303.15 K	1090	1.475	1469.9
313.15 K	1080	1.47	1436.3
323.15 K	1070	1.466	1403
